Values joined by “and” are separate entries in the source; they are usually repeats but may differ in a detail not shown here. Equal entries are not always repeated.
Tests used:
Carbonic anhydrase 1 = Carbonic anhydrase 1 (Homo sapiens, UniProt P00915)
Carbonic anhydrase 2 = Carbonic anhydrase 2 (Homo sapiens, UniProt P00918)
Carbonic anhydrase 9 = Carbonic anhydrase 9 (Homo sapiens, UniProt Q16790)

Carbonic anhydrase 1, sequence (P00915 whole entry): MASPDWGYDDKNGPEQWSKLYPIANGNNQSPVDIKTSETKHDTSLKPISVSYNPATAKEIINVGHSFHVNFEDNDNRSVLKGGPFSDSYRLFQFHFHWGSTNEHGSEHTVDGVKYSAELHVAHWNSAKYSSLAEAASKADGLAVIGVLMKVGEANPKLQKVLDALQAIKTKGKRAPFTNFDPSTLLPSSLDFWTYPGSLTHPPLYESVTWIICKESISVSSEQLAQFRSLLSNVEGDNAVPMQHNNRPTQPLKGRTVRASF

SMILES | Ki (Carbonic anhydrase 1) [µM] | Ki (Carbonic anhydrase 2) [µM] | Ki (Carbonic anhydrase 9)
C#CCCOS(N)(=O)=O | 990 | 5.9 | 0.633 µM
NS(=O)(=O)OCC1c2ccccc2-c2ccccc21 | 38 | 4.5 | > 1 µM
NS(=O)(=O)OCC(F)(F)F | 7.8 | 0.845 | 0.458 µM
Cc1ccc(COS(N)(=O)=O)cc1 | 0.1 | 0.0027 | 0.013 µM
NS(=O)(=O)OCCCCl | 4.62 | 0.57 | > 1 µM
C[C@]12CCC(OS(N)(=O)=O)CC1=C[C@@H](O)C1C2CC[C@]2(C)C(=O)CCC12 (stereo partly specified) | 0.4 | 0.013 | 0.065 µM
C=CCCOS(N)(=O)=O | 800 | 0.883 | 0.386 µM
CC(C)CCC[C@@H](C)[C@H]1CCC2C3CC=C4C[C@@H](OS(N)(=O)=O)CC[C@]4(C)C3CCC21 (stereo partly specified) | > 1000 | > 10 | > 1 µM
NS(=O)(=O)OC(C(F)(F)F)C(F)(F)F | 3.54 | 1.58 | 0.279 µM
NS(=O)(=O)OCc1ccc(-c2ccccc2)cc1 | > 1000 |  | > 1 µM
C[C@]12CCC(OS(N)(=O)=O)CC1=CC(=O)C1C2CC[C@]2(C)C(=O)CCC12 (stereo partly specified) | 0.41 | 0.023 | 0.076 µM
CCCCCCCCCCOS(N)(=O)=O [DECYL SULFAMATE] |  |  | 0.023 µM and 0.142 µM
NS(=O)(=O)OCc1ccccc1 [SULFAMIC ACID BENZYL ESTER] | 0.76 | 0.0034 | 0.014 µM
CCCCOS(N)(=O)=O [SULFAMIC ACID BUTYL ESTER] | 3.1 | 0.07 | > 1 µM
NS(=O)(=O)OC1CCCCC1 [SULFAMIC ACID CYCLOHEXYL ESTER] | 59 | 0.06 | > 1 µM
NS(=O)(=O)OC1CCCC1 [SULFAMIC ACID CYCLOPENTYL ESTER] | > 1000 | > 10 | > 1 µM
CCCCCCCCCCCCOS(N)(=O)=O [SULFAMIC ACID DODECYL ESTER] | 0.27 | 0.01 | 0.009 µM
CCOS(N)(=O)=O [SULFAMIC ACID ETHYL ESTER] | 38 | 5.5 | > 1 µM
CCCCCCCCCCCCCCCCOS(N)(=O)=O [SULFAMIC ACID HEXADECYL ESTER] | 58 | 0.097 | 
CC(C)OS(N)(=O)=O [SULFAMIC ACID ISOPROPYL ESTER] | 690 | > 10 | > 1 µM
COS(N)(=O)=O [SULFAMIC ACID METHYL ESTER] | 40 | 6 | > 1 µM
CCCCCCCCCCCCCCCCCCOS(N)(=O)=O [SULFAMIC ACID OCTADECYL ESTER] | 65 | 0.129 | 0.12 µM
CCCCCOS(N)(=O)=O [SULFAMIC ACID PENTYL ESTER] | 0.71 | 0.058 | 
NS(=O)(=O)OCCc1ccccc1 [SULFAMIC ACID PHENETHYL ESTER] | 0.41 | 0.0011 | 0.012 µM
CCCOS(N)(=O)=O [SULFAMIC ACID PROPYL ESTER] | 3.7 | 0.75 | > 1 µM
CCCCCCCCCCCCCCOS(N)(=O)=O [SULFAMIC ACID TETRADECYL ESTER] | 0.15 | 0.087 | 0.015 µM
CCCCCCCCCCCOS(N)(=O)=O [SULFAMIC ACID UNDECYL ESTER] | 0.43 | 0.0047 | 0.017 µM
